# PMC5432571 (Frontiers in Molecular Neuroscience, 2017)
# Read-outs that look alike come from different tables or passages of the source.
# Tests used:
# [1] = molecular target: T1, homomeric α1 GlyR (Homo sapiens, UniProt P23415); assay: Whole-cell patch-clamp of glycine-induced currents, α1 GlyR expressed in CHO cells; assay type: cell-based; conditions: for inhibition at 30 µM / inhibition at 100 µM / inhibition at 300 µM: CHO, long protocol, read-out: inhibition of α1GlyR-mediated currents; for inhibition at 30 µM: NFA 30 μM; for inhibition at 100 µM: NFA 100 μM; for inhibition at 300 µM: NFA 300 μM
# T1 construct: expressed in transfected cells; host or cells: CHO cells
# T1 sequence (P23415 29-449 isoform P23415-2 limits assumed): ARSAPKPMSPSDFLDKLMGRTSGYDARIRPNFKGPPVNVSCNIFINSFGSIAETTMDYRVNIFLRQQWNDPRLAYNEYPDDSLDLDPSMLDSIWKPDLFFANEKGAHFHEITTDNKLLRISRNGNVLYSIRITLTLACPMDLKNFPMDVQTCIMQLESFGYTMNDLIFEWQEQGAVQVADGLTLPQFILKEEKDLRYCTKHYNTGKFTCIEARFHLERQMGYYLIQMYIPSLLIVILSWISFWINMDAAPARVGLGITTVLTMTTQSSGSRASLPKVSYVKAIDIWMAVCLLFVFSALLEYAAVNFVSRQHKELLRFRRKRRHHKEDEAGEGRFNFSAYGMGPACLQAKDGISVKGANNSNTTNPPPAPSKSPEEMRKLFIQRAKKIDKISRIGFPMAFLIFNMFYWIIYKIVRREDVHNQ
# Protocol: (§1) The experiments were carried out on cultured Chinese hamster ovary (CHO) cells obtained from the American Type Tissue Culture Collection (ATCC, Molsheim, France) that were maintained in culture conditions as previously described (Mukhtarov et al., [2013]; Maleeva et al., [2015]).
# (§2) One day before transfection, cells were plated on the cover slips (12 mm in diameter) and placed inside 35-mm cell culture dishes with 2 ml of medium. Transfection was performed using the Lipofectamine 3000 protocol (Life Technology, USA). To facilitate identification of transfected cells a green fluorescent protein (GFP) was added to the transfection mixture. For expression of functional heteromeric receptors, cells were simultaneously transfected with cDNAs of α and β subunits in the ratio 1:10. Three hours after the initial exposure of cells to the cDNAs the culture medium was replaced with that containing strychnine (1 μM), which prevents spontaneous activation of GlyRs. Electrophysiological recordings were performed in the fluorescent cells 24–72 h after transfection.
# (§3) Whole-cell and outside-out recordings were performed at room temperature (20–25°C) using an EPC-9 amplifier (HEKA Elektronik, Germany). Cells were continuously superfused with external solution containing (mM): NaCl 140, CaCl2 2, KCl 2.8, MgCl2 4, HEPES 20, glucose 10; pH 7.4; 320–330 mOsm. Intracellular solution used for filling recording patch pipettes contained (mM): CsCl 140, CaCl2 6, MgCl2 2, MgATP 2, NaGTP 0.4, HEPES/CsOH 10, BAPTA (tetrapotassium salt) 2; pH 7.3; 290 mOsm. Two different protocols of solutions application were used in this study. […] A “ramp protocol” implies the gradual change of Vhold alternately from −80 to +80 mV and from +80 to −80 mV during 1 s, Vhold was fixed at −80 or +80 mV at the beginning and at the end of the ramp for 500 ms (Figure 2B).
# (§4) Recording pipettes were pulled from borosilicate glass capillaries (Harvard Apparatus Ltd, USA) and had resistances of 5–10 MOhm. For the rapid replacement of the solutions, the fast application system was used. Three parallel rectangular tubes (100 × 100 μm) were positioned 40–50 μm above the recorded cell. The movement of the tubes was controlled by a computer-driven fast exchange system (SF 77A Perfusion Fast-Step, Warner, USA) allowing a 10–90% solution exchange in 3–5 ms, as measured by open electrode controls (1/10 external solution/water). Cells with low input resistance (<150 MOhm) and a rapid run-down (>30% with repetitive application) were excluded from analysis.
# (§5) Electrophysiological recordings were performed using PatchMaster (HEKA Electronic, Germany) software.
# The fractional electrical distance from the external side of the membrane (δ) at which bound NFA blocked the current was calculated using the Woodhull equation: IC50(V)=IC50(0) exp (−δFV/RT), where IC50(V) is IC50 at the given membrane potential, IC50(0) – at 0 mV, V – membrane potential and F, R, T have their usual meanings. δ was determined from a plot of IC50 values against membrane potential.
# [2] = molecular target: T2, α2β GlyR (Homo sapiens, UniProt P23416+P48167); assay: Whole-cell patch-clamp of glycine-induced currents, heteromeric α2β GlyR expressed in CHO cells; assay type: cell-based; conditions: glycine 30 μM
# T2 construct: expressed in transfected cells; host or cells: CHO cells
# T2 sequence (P23416 28-452 isoform P23416-2 limits assumed): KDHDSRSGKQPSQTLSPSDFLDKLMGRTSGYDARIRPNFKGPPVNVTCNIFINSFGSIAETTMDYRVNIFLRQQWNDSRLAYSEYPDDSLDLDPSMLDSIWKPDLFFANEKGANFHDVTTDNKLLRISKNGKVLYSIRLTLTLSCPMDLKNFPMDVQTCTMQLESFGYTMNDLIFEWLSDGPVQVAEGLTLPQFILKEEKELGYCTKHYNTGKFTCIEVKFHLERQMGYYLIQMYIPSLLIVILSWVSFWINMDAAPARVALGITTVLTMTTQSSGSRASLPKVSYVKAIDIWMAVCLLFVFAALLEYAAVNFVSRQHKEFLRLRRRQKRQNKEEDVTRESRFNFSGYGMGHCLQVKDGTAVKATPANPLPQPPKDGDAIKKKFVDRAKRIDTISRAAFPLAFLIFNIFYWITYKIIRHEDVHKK
# T2 sequence (P48167 23-497): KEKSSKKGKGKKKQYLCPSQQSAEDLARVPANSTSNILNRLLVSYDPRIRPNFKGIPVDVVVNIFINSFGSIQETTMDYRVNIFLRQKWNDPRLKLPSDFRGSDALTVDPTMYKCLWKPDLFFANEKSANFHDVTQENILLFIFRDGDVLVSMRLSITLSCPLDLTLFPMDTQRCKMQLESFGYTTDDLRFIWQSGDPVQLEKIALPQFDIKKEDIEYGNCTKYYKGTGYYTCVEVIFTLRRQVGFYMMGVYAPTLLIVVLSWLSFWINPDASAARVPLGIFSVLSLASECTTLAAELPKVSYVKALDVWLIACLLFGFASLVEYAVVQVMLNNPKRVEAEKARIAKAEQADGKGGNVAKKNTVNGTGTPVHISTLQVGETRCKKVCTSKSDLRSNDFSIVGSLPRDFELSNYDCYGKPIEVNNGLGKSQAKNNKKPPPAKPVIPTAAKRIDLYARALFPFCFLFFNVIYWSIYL
# Protocol: as §1, §2, §3, §4, §5
# [3] = system: ClC-K kidney Cl− channels; set-up: method as in Zifarelli et al., 2010; conditions: biphasic: activates at low concentrations; ref Zifarelli et al., 2010; cited from earlier work
structure (smiles),measurement,setting,value
"O=C(O)c1cccnc1Nc1cccc(C(F)(F)F)c1 [NFA, Niflumic acid]",IC50,"[1]; +30 mV, glycine 30 μM, representative, read-out: NFA IC50 (representative IC50 curve)",218 µM
same,IC50,"[1]; +30 mV, glycine 100 μM, representative, read-out: NFA IC50 (representative IC50 curve)",107 µM
same,IC50,"[1]; +80 mV, glycine 30 μM, ramp protocol, mean ± SEM, read-out: IC50 of NFA",197 ± 18 µM
same,IC50,"[1]; +80 mV, glycine 30 μM, representative, read-out: NFA IC50 (representative IC50 curve)",178 µM
same,IC50,"[1]; +80 mV, glycine 100 μM, ramp protocol, mean ± SEM, read-out: IC50 of NFA",90 ± 8 µM
same,IC50,"[1]; +80 mV, glycine 100 μM, representative, read-out: NFA IC50 (representative IC50 curve)",94 µM
same,inhibition at 30 µM,"[1]; Vhold +30 mV, glycine 30 μM",16 ± 7%
same,inhibition at 30 µM,"[1]; Vhold −30 mV, glycine 30 μM",3 ± 4%
same,inhibition at 100 µM,"[1]; Vhold +30 mV, glycine 30 μM",43 ± 11%
same,inhibition at 100 µM,"[1]; Vhold −30 mV, glycine 30 μM",16 ± 6%
same,inhibition at 300 µM,"[1]; Vhold +30 mV, glycine 30 μM",75 ± 4%
same,inhibition at 300 µM,"[1]; Vhold −30 mV, glycine 30 μM",48 ± 9%
same,Hill coefficient (nH) of NFA interaction,[1]; glycine 30 μM,1.5 ± 0.11
same,decrease of IC50 at +80 mV versus −80 mV,[1]; glycine 100 μM,about 3 fold
same,Hill coefficient (nH) of NFA interaction,"[1]; membrane potential 30 mV, glycine 30 μM",1.87 ± 0.02
same,Hill coefficient (nH) of NFA interaction,"[1]; membrane potential 50 mV, glycine 30 μM",1.55 ± 0.08
same,Hill coefficient (nH) of NFA interaction,"[1]; membrane potential 80 mV, glycine 30 μM",1.28 ± 0.07
same,Hill coefficient (nH) of NFA interaction,"[1]; membrane potential −50 mV, glycine 30 μM",1.7 ± 0.08
same,Hill coefficient (nH) of NFA interaction,"[1]; membrane potential −70 mV, glycine 30 μM",1.65 ± 0.08
same,Hill coefficient (nH) of NFA interaction,"[1]; membrane potential −80 mV, glycine 30 μM",1.56 ± 0.07
same,Hill coefficient (nH) of NFA inhibitory action,[1]; overall statement in discussion,~1.5
same,IC50,"[1]; −30 mV, glycine 30 μM, representative, read-out: NFA IC50 (representative IC50 curve)",256 µM
same,IC50,"[1]; −30 mV, glycine 100 μM, representative, read-out: NFA IC50 (representative IC50 curve)",171 µM
same,IC50,"[1]; −80 mV, glycine 30 μM, ramp protocol, mean ± SEM, read-out: IC50 of NFA",315 ± 30 µM
same,IC50,"[1]; −80 mV, glycine 30 μM, representative, read-out: NFA IC50 (representative IC50 curve)",272 µM
same,IC50,"[1]; −80 mV, glycine 100 μM, ramp protocol, mean ± SEM, read-out: IC50 of NFA",270 ± 26 µM
same,IC50,"[1]; −80 mV, glycine 100 μM, representative, read-out: NFA IC50 (representative IC50 curve)",209 µM
same,IC50,"[2]; +30 mV, representative, read-out: NFA IC50 (representative IC50 curve)",24 µM
same,IC50,"[2]; +80 mV, mean ± SEM, read-out: IC50 of NFA",20 ± 8 µM
same,IC50,"[2]; +80 mV, representative, read-out: NFA IC50 (representative IC50 curve)",22 µM
same,IC50,"[2]; −30 mV, representative, read-out: NFA IC50 (representative IC50 curve)",47 µM
same,IC50,"[2]; −80 mV, mean ± SEM, read-out: IC50 of NFA",107 ± 37 µM
same,IC50,"[2]; −80 mV, representative, read-out: NFA IC50 (representative IC50 curve)",84 µM
same,concentrations at which NFA blocks the channels,[3],> 1 mM
